PubChem BioAssay (NCI)
Where “and” joins values, the source holds several entries; their conditions need not be identical. Equal entries are not always repeated.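 Where inhibition never reached the appropriate level, the endpoint shown equals the highest concentration tested. Otherwise, values were interpolated linearly from a five-concentration, 48-hour dose response in 96-well plates. GI50 = concentration required for 50% inhibition of growth. TGI denotes the concentration required for complete inhibition of growth.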

How the values were obtained:
Experiment in all cases: NCI-60 cell line screen, 48 h
HOP-92 NSCLC = tested on: HOP-92 NSCLC
LOX IMVI melanoma = tested on: LOX IMVI melanoma
NCI-H226 lung = tested on: NCI-H226 lung
NCI-H522 lung = tested on: NCI-H522 lung
SF-295 CNS = tested on: SF-295 CNS
SK-MEL-5 melanoma = tested on: SK-MEL-5 melanoma
SK-OV-3 ovarian = tested on: SK-OV-3 ovarian
UACC-257 melanoma = tested on: UACC-257 melanoma
UO-31 renal = tested on: UO-31 renal
CCRF-CEM leukemia = tested on: CCRF-CEM leukemia

Row | SMILES | GI50 (HOP-92 NSCLC) | TGI (HOP-92 NSCLC) | GI50 (LOX IMVI melanoma) | TGI (LOX IMVI melanoma) | GI50 (NCI-H226 lung) | TGI (NCI-H226 lung) | GI50 (NCI-H522 lung) | TGI (NCI-H522 lung) | GI50 (SF-295 CNS) | TGI (SF-295 CNS) | GI50 (SK-MEL-5 melanoma) | TGI (SK-MEL-5 melanoma) | GI50 (SK-OV-3 ovarian) | TGI (SK-OV-3 ovarian) | GI50 (UACC-257 melanoma) | TGI (UACC-257 melanoma) | GI50 (UO-31 renal) | TGI (UO-31 renal) | GI50 (CCRF-CEM leukemia) | TGI (CCRF-CEM leukemia)
1 | COc1ncnc(NS(=O)(=O)c2ccc(N=C3C(=O)N(CN4CCN(c5c(F)cc6c(=O)c(C(=O)O)cn(C7CC7)c6c5OC)CC4C)c4ccc(Cl)cc43)cc2)c1OC (centres undefined) | 10.6 µM | > 50 µM | 6.89 µM | 15.6 µM | 27.1 µM | > 50 µM | > 50 µM | > 50 µM | 10.7 µM | > 50 µM | 8.63 µM | 16.5 µM | 37.7 µM | > 50 µM | 6.32 µM | 14.7 µM | 32.7 µM | > 50 µM | – | –
2 | ClCc1cccc(Cn2cnc3ncnc(Cl)c32)c1 | – | – | 3.11 µM | 14 µM | 3.19 µM | 8.67 µM | 6.19 µM | 23.9 µM | 6.35 µM | 19 µM | 4.65 µM | 18.2 µM | 10.8 µM | 25.5 µM | 1.96 µM | 5.52 µM | 1.54 µM | 3.11 µM | 6.91 µM | 22.2 µM
3 | O=S1(=O)OCCOS(=O)(=O)C1Br | – | > 100 µM | – | – | – | > 100 µM | – | > 100 µM | – | > 100 µM | – | > 100 µM | – | > 100 µM | – | > 100 µM | – | > 100 µM | – | > 100 µM
4 | CN(C)CCSC1=Nc2ccc(Cl)cc2C(c2ccccc2Cl)=NC1 | 12.3 µM and 72.3 µM | 31.7 µM and > 100 µM | 15.6 µM and 69.7 µM | 30.9 µM and > 100 µM | – | – | 6.68 µM and 52.2 µM | 21.6 µM and > 100 µM | 16 µM and 68.7 µM | 31.5 µM and > 100 µM | 15 µM and 43.3 µM | 28.7 µM and > 100 µM | 16.9 µM and 63.1 µM | 33.6 µM and > 100 µM | 13.4 µM and > 100 µM | 26.3 µM and > 100 µM | 9.23 µM and 53.4 µM | 21.8 µM and > 100 µM | 21.5 µM and 46.2 µM | 82.1 µM and > 100 µM
5 | COc1cc2c(c(OC)c1OC)-c1ccc(OC)c(=O)cc1C(NC(=O)c1ccc(N=[N+]=[N-])cc1)CC2 (centres undefined) | – | 18.9 µM | – | 24.9 µM | – | 3.78 µM | – | 0.0387 µM | – | 0.0582 µM | – | 1.95 µM | – | – | – | > 100 µM | – | > 95.7 µM | – | > 24.5 µM
6 | C[Si](C)(C)C1(Sc2ccccc2)SCCCS1 | – | > 100 µM | – | > 100 µM | – | – | – | 68.6 µM | – | > 100 µM | – | > 100 µM | – | > 100 µM | – | > 100 µM | – | 39.8 µM | – | 77.8 µM
7 | OCCCCCNCc1cc2cc3c(cc2c2cc(OCc4ccccc4)ccc12)OCO3 | 1.23 µM | 2.84 µM | – | – | 1.85 µM | 3.41 µM | – | – | 1.59 µM | 3 µM | 1.48 µM | 2.8 µM | 3.02 µM | 7.94 µM | 1.63 µM | 3.15 µM | 1.66 µM | 3.27 µM | 2.52 µM | 6.11 µM
8 | OC(c1nc2ccccc2[nH]1)C(O)C(O)C(O)c1nc2ccccc2[nH]1 (centres undefined) | – | > 100 µM | – | > 100 µM | – | > 100 µM | – | > 100 µM | – | > 100 µM | – | > 100 µM | – | > 100 µM | – | > 100 µM | – | > 100 µM | – | –
9 | C=C(Br)C(C)(Br)CCC(Br)C(C)(C)Cl (centres undefined) | – | 30.2 µM | – | – | – | 81.3 µM | – | 20.4 µM | – | 32.7 µM | – | 32.4 µM | – | 60.4 µM | – | 37.4 µM | – | 32 µM | – | 13.4 µM
10 | CCN(CC)/C(SCc1ccccc1)=C(\C(Cl)=C(Cl)Cl)[N+](=O)[O-] | – | – | – | 32.7 µM | – | 39.1 µM | – | 47.2 µM | – | > 100 µM | – | 30.5 µM | – | > 100 µM | – | 31.8 µM | – | 38.9 µM | – | 52.2 µM
11 | CC(=O)[C@@]12O[C@@H]1CC1C3CCC4=CC(O)CCC4(C)C3CCC12C (some centres undefined) | – | – | 44.4 µM | > 100 µM | 75.9 µM | > 100 µM | > 100 µM | > 100 µM | 12.2 µM | 56.5 µM | > 100 µM | > 100 µM | – | – | > 100 µM | > 100 µM | > 100 µM | > 100 µM | – | –
12 | Cc1ccc(S(=O)(=O)Nc2ccccc2C(=O)c2ccc(C)c(C)c2)cc1 | – | – | – | > 100 µM | – | > 100 µM | – | > 100 µM | – | > 100 µM | – | > 100 µM | – | > 100 µM | – | > 100 µM | – | > 100 µM | – | –
13 | [Cl-].[La+3].[O-]/N=C(\c1ccccc1)c1ccccn1.[O-]/N=C(\c1ccccc1)c1ccccn1.[O-]/N=C(\c1ccccc1)c1ccccn1 | – | – | 22.9 µM | > 100 µM | 21.6 µM | 51.2 µM | 44.5 µM | > 100 µM | 27.7 µM | > 100 µM | 28.6 µM | > 76.4 µM | 50.8 µM | > 100 µM | 41.1 µM | > 100 µM | 30.2 µM | > 80.8 µM | 25.7 µM | > 100 µM
14 | CC1=CC(O)(c2ccc(-c3ccccc3Cl)cc2)OC1=O (centres undefined) | – | > 100 µM | – | > 100 µM | – | – | – | > 100 µM | – | > 100 µM | – | > 100 µM | – | > 100 µM | – | > 100 µM | – | > 100 µM | – | > 100 µM
15 | CC(C)=Cc1cc(C(=O)Nc2ccc(Cl)c(Cl)c2)nc(N)n1 | – | > 100 µM | – | > 100 µM | – | > 100 µM | – | – | – | > 100 µM | – | > 100 µM | – | – | – | > 100 µM | – | > 100 µM | – | –
16 | COc1ccc(-c2nnc(COc3ccc(C(=O)/C=C/c4ccco4)cc3)o2)cc1 | 2.9 µM | 16.9 µM | 1.71 µM | 3.18 µM | 4 µM | 16.8 µM | 2.59 µM | 5.62 µM | 3.75 µM | 14.7 µM | 3.16 µM | 11.1 µM | 12.2 µM | 24.6 µM | 2.94 µM | 10.5 µM | 2.32 µM | 6.69 µM | – | –
17 | CCOC(=O)CC(=O)ON(C)C(C)=O | – | – | – | > 100 µM | – | > 100 µM | – | > 100 µM | – | > 100 µM | – | > 100 µM | – | > 100 µM | – | > 100 µM | – | > 100 µM | – | > 100 µM
18 | COc1cc(C2c3cc4c(cc3OC(C)(O)C2C)OCO4)cc(OC)c1OC (centres undefined) | – | – | – | > 100 µM | – | 13.5 µM | – | 1.19 µM | – | – | – | 2.36 µM | – | – | – | > 100 µM | – | 81.5 µM | – | 16.6 µM
